Source: patent publication US11266717B2, “Diagnosis, prevention, and/or treatment of autoimmune diseases” (priority 2016, dated 2022)
Non-standard residues stand in square brackets, D forms with d. Residues, ends and D or L forms follow the SMILES beside them. *: point of attachment. Dolaproine = CO[C@@H]([C@@H]1CCCN1)[C@@H](C)C(=O)O; Dil = CC[C@H](C)[C@H](NC)[C@@H](CC(=O)O)OC; X1 = C[C@@H](N*)[C@@H](O)c1ccccc1; NMeV = CN[C@H](C(=O)O)C(C)C

Legend:
[1] = tested on: anti-PLA2R autoantibodies; experiment: Western blot of PLA2R-epitope proteins probed with patient serum containing anti-PLA2R autoantibodies; format: binding, human; settings: SDS-PAGE under non-reducing condition
Description: (§1) The construct was then expressed in the HEK293 cells and the epitope protein was purified using nickel and gel filtration columns followed with TEV cleavage to remove the His-tag. The protein was then coupled with a fluorescent agent (eg. FITC) or a cytotoxic reagent (eg. Monomethyl auristatin E (MMAE)).
In a separate experiment (FIG. 23; bottom right), equal amount of epitope, FITC conjugated epitope and MMAE conjugated epitope proteins were resolved on a SDS-PAGE under the non-reducing condition, transferred to a membrane, and probed by a patient serum containing anti-PLA2R autoantibodies. The unconjugated and the conjugated PLA2R-epitope proteins were resolved on a 4-20% SDS-PAGE under the non-reducing condition and probed with a patient serum containing anti-PLA2R autoantibodies (FIG. 23, bottom right).
as §1, with “(MMAE)) (FIG. 23).” for “(MMAE)).”

[2] = tested on: Dsg1 and Dsg3-epitope specific memory B cells isolated from mucocutaneous PV patients; experiment: Elimination of Dsg1 and Dsg3-epitope specific memory B cells: 24 h preincubation, then Dsg1 and Dsg3-epitope-FITC staining; format: cell-based, human; settings: preincubation 24 h; then Dsg1 and Dsg3-epitope-FITC 1 h at 4° C.; FIG. 30
Protocol: (§2) In some embodiments, the efficacy of an EDC may be tested in vitro using patient samples prior to administering the EDC to patients. For example, the efficacy of an EDC is tested on isolated B cells from patient peripheral blood mononuclear cells (PBMCs) (FIG. 25; Example 6, and FIG. 30; Example 9). An EDC comprising a fluorophore (e.g., FITC) is used detect the presence of autoantibody-producing B cells in patient samples (left panels in FIG. 25 (MN patient samples) and FIG. 30 (Pemphigus vulgaris patient samples) prior to exposing the samples to an EDC comprising a cytotoxic drug. The patient samples are then treated with an EDC comprising a cytotoxic drug (e.g., MMAE). The EDC comprising the fluorophore is then used determine the efficacy of the EDC comprising a cytotoxic drug of autoantibody-producing B cells in patient samples (middle panels in FIG. 25 (MN patient samples) and FIG. 30 (Pemphigus vulgaris patient samples)).
The efficacy of the Dsg1 and Dsg3 epitope conjugated to MMAE to eliminate Dsg1 and Dsg3-epitope specific memory B cells, respectively, isolated from the mucocutaneous PV patients was assessed. Total B cells isolated from patient peripheral blood were cultured overnight in RPMI medium and then split equally into two wells on a 12 well cell culture plate (2 ml/per well). […]

[3] = tested on: PLA2R-epitope specific memory B cells isolated from PMN patients; experiment: Elimination of PLA2R-epitope specific memory B cells: 24 h preincubation, then PLA2R-epitope-FITC staining; format: cell-based, human; settings: preincubation 24 h; then PLA2R-epitope-FITC 1 h at 4° C.; FIG. 25
Protocol: as §2
The efficacy of the PLA2R-epitope-MMAE on eliminating the PLA2R-epitope specific memory B cells isolated from PMN patients was assessed. MMAE is a potent cytotoxic agent that blocks tubulin polymerization causing cell death. MMAE has been used to develop an antibody-drug conjugate, Brentuximab vedotin (trade name Adcetris) for lymphoma treatment, and was approved by FDA in 2011. […]

Row | Compound | reaction/binding with anti-PLA2R autoantibodies (Western blot) [1] | reaction/binding with anti-PLA2R autoantibodies (Western blot) ([1]; listed as modified PLA2R-epitope) | reaction/binding with anti-PLA2R autoantibodies (Western blot) ([1]; listed as unconjugated PLA2R-epitope) | staining of B cells with Dsg1 and Dsg3-epitope-FITC after preincubation (elimination of Dsg1 and Dsg3-epitope specific memory B cells) [2] | staining of B cells with PLA2R-epitope-FITC after preincubation (elimination of PLA2R-epitope specific memory B cells) [3]
1 | PLA2R-epitope: PLA2R CysR, FnII and CTLD1 domains with free cysteine engineered into the C-terminal tail, expressed in HEK293 cells, about 37 kDa | strongly reacted | strongly reacted | strongly | – | –
2 | CC[C@H](C)[C@@H]([C@@H](CC(=O)N1CCC[C@H]1[C@H](OC)[C@@H](C)C(=O)N[C@H](C)[C@@H](O)c1ccccc1)OC)N(C)C(=O)[C@@H](NC(=O)[C@@H](NC)C(C)C)C(C)C [MMAE, Monomethyl auristatin E, reference compound] (H-[NMeV]V[Dil][Dolaproine]-X1) | – | – | – | a number of B cells being stained | a number of B cells being stained
